Results reported in US20250154115A1, “ARYLBENZOISOXAZOLE COMPOUNDS AS IP6K AND IPMK INHIBITORS AND METHODS OF USE THEREOF” (THE UNIVERSITY OF NORTH CAROLINA AT CHAPEL HILL, priority 2022, published 2025).

Columns and labels:
Type in all cases: biochemical
[1] = target: IP6K2 (Homo sapiens (Human), UniProt Q9UHH9); assay: Enzyme-coupled assay of IP6K2 activity (Dipp1-coupled, malachite green Pi release)
Protocol: (§1) […] The cells were disrupted using a constant cell disruption system (Constant Systems) under 20 kPsi.
(§2) Pi release was determined with a malachite green colorimetric assay.^45 Where indicated, TNP (Cayman Chemical) was added to the assays (FIG. 2A-E).

[2] = target: IP6K1 (Homo sapiens (Human), UniProt Q92551); assay: Enzyme-coupled assay of IP6K1 activity (Dipp1-coupled, malachite green Pi release)
Chain of IP6K1 (Q92551 whole entry): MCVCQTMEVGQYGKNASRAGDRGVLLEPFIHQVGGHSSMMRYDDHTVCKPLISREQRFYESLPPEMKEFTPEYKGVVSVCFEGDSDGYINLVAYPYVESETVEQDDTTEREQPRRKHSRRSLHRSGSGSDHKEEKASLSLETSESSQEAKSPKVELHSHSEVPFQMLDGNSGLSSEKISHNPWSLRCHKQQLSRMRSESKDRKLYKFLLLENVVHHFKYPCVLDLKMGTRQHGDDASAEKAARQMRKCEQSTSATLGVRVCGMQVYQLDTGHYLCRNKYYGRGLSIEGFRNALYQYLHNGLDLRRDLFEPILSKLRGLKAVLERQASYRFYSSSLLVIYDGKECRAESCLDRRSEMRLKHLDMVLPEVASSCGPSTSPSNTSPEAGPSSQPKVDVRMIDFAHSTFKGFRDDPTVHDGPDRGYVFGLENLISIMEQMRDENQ
Protocol: as §1, §2

[3] = target: IPMK (Homo sapiens (Human), UniProt Q8NFU5); assay: Enzyme-coupled assay, IPMK IC50
Chain of IPMK (Q8NFU5 whole entry, species assumed): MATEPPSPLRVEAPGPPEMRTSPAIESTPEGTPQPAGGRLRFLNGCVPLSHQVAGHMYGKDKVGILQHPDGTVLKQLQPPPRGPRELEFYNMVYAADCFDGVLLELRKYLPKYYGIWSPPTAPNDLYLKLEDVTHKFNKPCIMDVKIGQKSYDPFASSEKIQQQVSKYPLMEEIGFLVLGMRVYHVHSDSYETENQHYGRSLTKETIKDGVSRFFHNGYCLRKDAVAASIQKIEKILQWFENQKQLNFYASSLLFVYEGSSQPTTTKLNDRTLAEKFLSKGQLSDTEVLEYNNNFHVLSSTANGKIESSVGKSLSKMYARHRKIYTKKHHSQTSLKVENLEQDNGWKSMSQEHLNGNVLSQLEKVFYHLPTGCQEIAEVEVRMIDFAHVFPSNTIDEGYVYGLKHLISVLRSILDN

[4] = determined from enzyme-coupled assays

Chain of IP6K2 (Q9UHH9 whole entry): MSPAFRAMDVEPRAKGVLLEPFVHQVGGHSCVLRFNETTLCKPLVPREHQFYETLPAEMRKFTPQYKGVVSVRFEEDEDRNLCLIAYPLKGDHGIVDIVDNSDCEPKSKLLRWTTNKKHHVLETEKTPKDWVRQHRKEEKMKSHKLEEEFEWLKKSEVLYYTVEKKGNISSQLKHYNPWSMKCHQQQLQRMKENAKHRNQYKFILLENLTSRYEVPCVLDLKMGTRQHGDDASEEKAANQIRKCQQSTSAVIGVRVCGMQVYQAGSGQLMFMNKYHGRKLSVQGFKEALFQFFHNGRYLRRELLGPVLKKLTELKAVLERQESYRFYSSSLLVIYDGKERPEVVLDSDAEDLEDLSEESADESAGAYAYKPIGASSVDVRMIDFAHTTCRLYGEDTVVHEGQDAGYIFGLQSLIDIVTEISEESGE

Row | IC50 ([1]; enzyme-coupled assay, Table 4) [nM] | IC50 ([2]; enzyme-coupled assay, Table 4) [nM] | SMILES | other results
1 | 10 to 100 | 10 to 100 | c1cc(OC2CNC2)cc(-c2onc3ccc(-c4nnn[nH]4)cc23)c1 [Compound 92] | 
2 | 10 to 100 | 10 to 100 | CC1(COc2cccc(-c3onc4ccc(-c5nnn[nH]5)cc34)c2)COC1 [Cmpd 91] | 
3 |  | 100 to 1000 | O=C(Nc1ccc(-c2onc3ccc(-c4nnn[nH]4)cc23)cc1)C1CCCCC1 [Compound 98] | 
4 |  | 100 to 1000 | O=C(C1CC1)N1CCC(c2ccc(-c3onc4ccc(-c5nnn[nH]5)cc34)cc2)CC1 [Compound 122] | 
5 |  |  | O=C(O)c1ccc2noc(-c3ccc(OC(F)(F)F)cc3)c2c1 [Compound 23] | IC50 ([1]; enzyme-coupled assay, Table 2): 100 to 1000 nM; IC50 ([2]; enzyme-coupled assay, Table 2): 1000 to 100000 nM
6 |  |  | CNC(=O)c1ccc2noc(-c3cccc(Oc4ncc(Cl)cc4Cl)c3)c2c1 [Compound 31] | IC50 ([1]; enzyme-coupled assay, Table 2): 100 to 1000 nM; IC50 ([2]; enzyme-coupled assay, Table 2): 100 to 1000 nM; IC50 ([3]; enzyme-coupled assay, Table 2): 1000 to 100000 nM
7 | 10 to 100 | 10 to 100 | CC(C)C(=O)N1CCC(Oc2cccc(-c3onc4ccc(-c5nnn[nH]5)cc34)c2)CC1 [Compound 90] | IC50 ([3]; enzyme-coupled assay, Table 4): < 10 nM
8 |  | 100 to 1000 | O=C(Nc1ccc(-c2onc3ccc(-c4nnn[nH]4)cc23)cc1)C1CCNC1 (stereo not drawn) [Compound 101] | 
9 |  | 100 to 1000 | O=C(N1CCC(c2ccc(-c3onc4ccc(-c5nnn[nH]5)cc34)cc2)CC1)C1(F)CC1 [Compound 123] | 
10 | 100 to 1000 | 10 to 100 | c1cc(OC2CCN(CC3CC3)CC2)cc(-c2onc3ccc(-c4nnn[nH]4)cc23)c1 [Compound 88, 3-(3-((1-(cyclopropylmethyl)piperidin-4-yl)oxy)phenyl)-5-(1H-tetrazol-5-yl)benzo[c]isoxazole] | IC50 ([3]; enzyme-coupled assay, Table 4): 10 to 100 nM
11 |  |  | O=C(O)c1ccc2noc(-c3ccc(C(=O)NCCN4CCOCC4)cc3)c2c1 [Compound 41] | IP6K2 IC50 ([1]; enzyme-coupled assay, Table 2): −; IP6K1 IC50 ([2]; enzyme-coupled assay, Table 2): −; IPMK IC50 ([3]; enzyme-coupled assay, Table 2): −
12 |  |  | COc1ccc(-c2onc3ccc(/C=C/C(=O)O)cc23)cc1 [Compound 13] | IC50 ([1]; enzyme-coupled assay, Table 1): 1000 to 100000 nM; IC50 ([2]; enzyme-coupled assay, Table 1): 100 to 1000 nM
13 |  | 100 to 1000 | CC(C)(C)OC(=O)N1CC(C(=O)N2CCC(c3cccc(-c4onc5ccc(-c6nnn[nH]6)cc45)c3)CC2)C1 [Compound 115] | 
14 |  |  | O=C(O)c1ccc2noc(-c3ccc(-c4cccnc4)cc3)c2c1 [Compound 57] | IC50 ([3]; enzyme-coupled assay, Table 3): 10 to 100 nM
15 | 10 to 100 | 10 to 100 | O=C(C1CCCC1)N1CCC(Oc2cccc(-c3onc4ccc(-c5nnn[nH]5)cc34)c2)CC1 [Compound 94] | 
16 |  | 100 to 1000 | c1cc(-c2onc3ccc(-c4nnn[nH]4)cc23)cc(C2CCN(C3CCCC3)CC2)c1 [Compound 114] | 

Row | IC50 ([1]; enzyme-coupled assay, Table 4) [nM] | IC50 ([2]; enzyme-coupled assay, Table 4) [nM] | SMILES | other results
17 |  |  | O=c1[nH]c(-c2ccc3noc(-c4cccc(OC5CCN(C6COC6)CC5)c4)c3c2)no1 [Cmpd 134] | IC50 [1, 4]: 100 to 1000 nM; IC50 [2, 4]: 100 to 1000 nM; IC50 [3, 4]: 100 to 1000 nM
18 |  |  | CCOC(=O)/C=C/c1ccc2noc(-c3ccccc3)c2c1 [Compound 7] | IC50 ([1]; enzyme-coupled assay, Table 1): 1000 to 100000 nM; IC50 ([2]; enzyme-coupled assay, Table 1): 1000 to 100000 nM
19 |  | 100 to 1000 | CC(=O)N1CCC(c2ccc(-c3onc4ccc(-c5nnn[nH]5)cc34)cc2)CC1 [Compound 119] | 
20 |  |  | CN1CCC(Oc2cccc(-c3onc4ccc(-c5noc(=O)[nH]5)cc34)c2)CC1 [Cmpd 131] | IC50 [1, 4]: 100 to 1000 nM; IC50 [2, 4]: 100 to 1000 nM; IC50 [3, 4]: 100 to 1000 nM
21 |  | 10 to 100 | CC(C)C(=O)N1CCC(c2cccc(-c3onc4ccc(-c5nnn[nH]5)cc34)c2)CC1 [Compound 109] | 
22 | 100 to 1000 |  | c1cc(OC2CCN(C3CCC3)CC2)cc(-c2onc3ccc(-c4nnn[nH]4)cc23)c1 [Compound 62] | IC50 ([3]; enzyme-coupled assay, Table 4): 10 to 100 nM
23 | 10 to 100 | 10 to 100 | Nc1cccc(-c2ccc(-c3onc4ccc(-c5nnn[nH]5)cc34)cc2)c1 [Compound 95] | 
24 | 10 to 100 | < 10 | CC(=O)N1CCC(Oc2cccc(-c3onc4ccc(-c5nnn[nH]5)cc34)c2)CC1 [Compound 85, 1-(4-(3-(5-(1H-tetrazol-5-yl)benzo[c]isoxazol-3-yl)phenoxy)piperidin-1-yl)ethan-1-one] | IC50 ([3]; enzyme-coupled assay, Table 4): 10 to 100 nM
25 |  |  | O=c1[nH]c(-c2ccc3noc(-c4cccc(Oc5ncc(Cl)cc5Cl)c4)c3c2)no1 [Cmpd 127] | IC50 [1, 4]: 10 to 100 nM; IC50 [2, 4]: 10 to 100 nM; IC50 [3, 4]: 10 to 100 nM
26 | 10 to 100 | 10 to 100 | CN1CCC(Oc2cccc(-c3onc4ccc(-c5nnn[nH]5)cc34)c2)CC1 [Compound 86] | IC50 ([3]; enzyme-coupled assay, Table 4): 10 to 100 nM
27 |  | 10 to 100 | CC(=O)N1CCC(c2cccc(-c3onc4ccc(-c5nnn[nH]5)cc34)c2)CC1 [Compound 106] | 
28 |  | 100 to 1000 | CC(C)C(=O)N1CCC(c2ccc(-c3onc4ccc(-c5nnn[nH]5)cc34)cc2)CC1 [Compound 120] | 
29 | 10 to 100 | 10 to 100 | CC(C)(C)OC(=O)Nc1cccc(-c2cccc(-c3onc4ccc(-c5nnn[nH]5)cc34)c2)c1 [Compound 96] | 
30 |  | 10 to 100 | O=C(C1CC1)N1CCC(c2cccc(-c3onc4ccc(-c5nnn[nH]5)cc34)c2)CC1 [Compound 111] | 
31 |  | 10 to 100 | O=C1CC(C(=O)N2CCC(c3cccc(-c4onc5ccc(-c6nnn[nH]6)cc45)c3)CC2)C1 [Compound 110] | 
32 | 10 to 100 | 100 to 1000 | CC1(C(=O)N2CCC(Oc3cccc(-c4onc5ccc(-c6nnn[nH]6)cc45)c3)CC2)COC1 [Compound 93] | 
